Each structure is given as a SMILES string. The source made the active and inactive calls. Rule as the data show it: actives have a measured IC50 and inactives only a lower limit.

In the assay the target is Envelope glycoprotein gp160 (Human immunodeficiency virus 1, UniProt Q6QLK5). Nature of the assay: cell-free HIV fusion peptide-binding blockers – biochemical, uHTS, fluorescence dequenching, […] (AID 1986).
Chain of Envelope glycoprotein gp160 (Q6QLK5 whole entry, the tested form may be a part): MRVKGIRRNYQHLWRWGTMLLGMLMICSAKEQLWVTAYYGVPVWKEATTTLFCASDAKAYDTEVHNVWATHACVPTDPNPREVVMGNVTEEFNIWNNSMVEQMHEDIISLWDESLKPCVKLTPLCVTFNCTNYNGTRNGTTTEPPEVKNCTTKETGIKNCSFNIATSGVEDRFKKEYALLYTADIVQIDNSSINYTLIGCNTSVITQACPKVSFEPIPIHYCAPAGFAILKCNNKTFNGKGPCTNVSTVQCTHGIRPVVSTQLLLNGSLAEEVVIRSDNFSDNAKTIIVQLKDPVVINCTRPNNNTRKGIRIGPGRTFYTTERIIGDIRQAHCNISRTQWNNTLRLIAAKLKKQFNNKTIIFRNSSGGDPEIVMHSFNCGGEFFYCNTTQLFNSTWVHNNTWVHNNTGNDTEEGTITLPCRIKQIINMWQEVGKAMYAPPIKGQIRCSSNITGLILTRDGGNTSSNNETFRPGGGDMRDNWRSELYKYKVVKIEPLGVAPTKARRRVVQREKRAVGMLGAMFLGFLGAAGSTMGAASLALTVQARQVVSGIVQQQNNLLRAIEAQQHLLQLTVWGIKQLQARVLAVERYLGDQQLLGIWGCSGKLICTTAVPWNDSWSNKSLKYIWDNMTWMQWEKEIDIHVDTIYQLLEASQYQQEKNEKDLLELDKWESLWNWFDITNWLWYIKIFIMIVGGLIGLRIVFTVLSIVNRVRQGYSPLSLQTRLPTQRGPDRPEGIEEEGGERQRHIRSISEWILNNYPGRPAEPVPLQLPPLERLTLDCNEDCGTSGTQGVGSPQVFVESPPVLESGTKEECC
As a reminder, the IC50 is the concentration at which inhibition is half-maximal. In the case of `O=C(CCN1C(=O)/C(=C\C=C\c2ccccc2)SC1=S)Nc1ccccc1C(=O)O`, the IC50 was 20.2 µM (active).
In the case of `COc1cc(/C=C2/SC(=S)NC2=O)ccc1OS(=O)(=O)c1ccc(C)cc1`, the IC50 is 16.5 µM (active).
Regarding `O=C(O)c1cc(-c2ccc(-c3c(-c4ccc5c(c4)OCO5)noc3-c3ccsc3)cc2)nc2ccccc12`, the IC50 was 52.2 µM (active).
Take `O=C(Nc1cc(S(=O)(=O)N2CCCCC2)ccc1Cl)c1ccccc1NS(=O)(=O)c1ccc(F)cc1`: the IC50 is 13.4 µM (active).
`O=C(O)COc1ccccc1/C=N/Nc1ccc(S(=O)(=O)Nc2ccc(Cl)cc2)cc1[N+](=O)[O-]`: the IC50 was 19.6 µM (active).

The values above are taken from ChEMBL document CHEMBL1201862, “PubChem BioAssay data set” (2004).
